Results taken from patent publication US20140343017A1, “PYRROLE COMPOUND” (Kabushiki Kaisha Yakult Honsha, priority 2012, published 2014).

What was measured:
Test in all cases: Inhibitory effect on growth of human cancer cells (in vitro), WST-8
Type in all cases: cell-based
[1] = test system: human colorectal cancer HT-29 cells; settings: Homo sapiens, HT-29, 96 h, 96 hours culture, read-out: IC50 (nM) HT29
Description: (§1) Each pyrrole compound of the present invention was studied for its effects on the growth of human non-small cell lung cancer A549 cells and human colorectal cancer HT-29 cells and HCT116 cells. The cells of each line were suspended in an RPMI1640 medium supplemented with 10% fetal bovine serum and inoculated at a cell density of 1000 cells/50 μL/well to a 96-well plate. After overnight culture, each compound diluted with a medium was added thereto at a concentration of 50 μL/well, and the cells were further cultured for 96 hours. After the completion of culture, WST-8 (Seikagaku Corp.) was added thereto at a concentration of 10 μL/well, and the cells were cultured at 37° C. for approximately 1 hour under 5% CO2 conditions, followed by measurement of absorbance at 450 nm.

[2] = test system: human non-small cell lung cancer A549 cells; settings: 96 hours culture
Description: as §1

[3] = test system: human colorectal cancer HCT116 cells; settings: 96 hours culture
Description: as §1

Compound | IC50 [1] | IC50 ([2]; Homo sapiens, A549, 96 h) | IC50 ([3]; Homo sapiens, HCT-116, 96 h) | IC50 [3] | IC50 [2]
COc1ccc(C(=O)c2c(C(C)O)[nH]c(-c3nnn(CCO)n3)c2C)cc1Br (stereo not drawn) [Compound 131, (3-bromo-4-methoxyphenyl)(2-(1-hydroxyethyl)-5-(2-(2-hydroxyethyl)-2H-tetrazol-5-yl)-4-methyl-1H-pyrrol-3-yl)methanone] | 34.8 nM | 45.1 nM | 90.9 nM | – | –
COc1ccc(C(=O)c2c(C#N)[nH]c(-c3nnn(CCOC(C)=O)n3)c2C)cc1Br [Compound 138, 2-(5-(4-(3-bromo-4-methoxybenzoyl)-5-cyano-3-methyl-1H-pyrrol-2-yl)-2H-tetrazol-2-yl)ethyl acetate] | 170 nM | 239 nM | 167 nM | – | –
COc1ccc(C(=O)c2c(C#N)[nH]c(-c3nnn(CCO)n3)c2C)cc1Br [Compound 139, 3-(3-bromo-4-methoxybenzoyl)-5-(2-(2-hydroxyethyl)-2H-tetrazol-5-yl)-4-methyl-1H-pyrrole-2-carbonitrile] | 174 nM | 245 nM | 171 nM | – | –
CNC(=O)c1[nH]c(-c2nnn(CCO)n2)c(C)c1C(=O)c1ccc(OC)c(Br)c1 [Compound 149, 3-(3-bromo-4-methoxybenzoyl)-5-(2-(2-hydroxyethyl)-2H-tetrazol-5-yl)-N,4-dimethyl-1H-pyrrole-2-carboxamide] | 232 nM | 306 nM | 219 nM | – | –
COc1ccc(C(=O)c2c(C(N)=O)[nH]c(-c3nnn(CCO)n3)c2C)cc1Br [Compound 150, 3-(3-bromo-4-methoxybenzoyl)-5-(2-(2-hydroxyethyl)-2H-tetrazol-5-yl)-4-methyl-1H-pyrrole-2-carboxamide] | 145 nM | 192 nM | 181 nM | – | –
COc1ccc(C(=O)c2c(/C=N/O)[nH]c(-c3nnn(CCOC(C)=O)n3)c2C)cc1Br [Compound 169, (E)-2-(5-(4-(3-bromo-4-methoxybenzoyl)-5-((hydroxyimino)methyl)-3-methyl-1H-pyrrol-2-yl)-2H-tetrazol-2-yl)ethyl acetate] | 167 nM | 225 nM | 162 nM | – | –
COc1ccc(C(=O)c2c(/C=N\O)[nH]c(-c3nnn(CCOC(C)=O)n3)c2C)cc1Br [Compound 170, (Z)-2-(5-(4-(3-bromo-4-methoxybenzoyl)-5-((hydroxyimino)methyl)-3-methyl-1H-pyrrol-2-yl)-2H-tetrazol-2-yl)ethyl acetate] | 143 nM | 197 nM | 133 nM | – | –
COc1ccc(C(=O)c2c(CCl)[nH]c(-c3nnn(CCOC(C)=O)n3)c2C)cc1Br [Compound 172, 2-(5-(4-(3-bromo-4-methoxybenzoyl)-5-(chloromethyl)-3-methyl-1H-pyrrol-2-yl)-2H-tetrazol-2-yl)ethyl acetate] | 34.5 nM | 47 nM | 36.9 nM | – | –
Cc1[nH]c(-c2nnc(CCCl)o2)c(C)c1C(=O)c1cccc(Br)c1 [Compound 174, (3-bromophenyl)(5-(5-(2-chloroethyl)-1,3,4-oxadiazol-2-yl)-2,4-dimethyl-1H-pyrrol-3-yl)methanone] | 38.6 nM | 77.1 nM | 44.6 nM | – | –
Cc1[nH]c(-c2nnc(C3CC3)o2)c(C)c1C(=O)c1cccc(Br)c1 [Compound 177, (3-bromophenyl)(5-(5-cyclopropyl-1,3,4-oxadiazol-2-yl)-2,4-dimethyl-1H-pyrrol-3-yl)methanone] | 0.4 nM | 1.5 nM | 0.4 nM | – | –
Cc1[nH]c(-c2nnc(C(C)C)o2)c(C)c1C(=O)c1cccc(Br)c1 [Compound 178, (3-bromophenyl) (5-(5-isopropyl-1,3,4-oxadiazol-2-yl)-2,4-dimethyl-1H-pyrrol-3-yl)methanone] | 36.9 nM | 71.8 nM | 45.1 nM | – | –
Cc1[nH]c(-c2nnc(C3CCC3)o2)c(C)c1C(=O)c1cccc(Br)c1 [Compound 179, (3-bromophenyl) (5-(5-cyclobutyl-1,3,4-oxadiazol-2-yl)-2,4-dimethyl-1H-pyrrol-3-yl)methanone] | 336 nM | 800 nM | 329 nM | – | –
Cc1[nH]c(-c2nnc(C(F)F)o2)c(C)c1C(=O)c1cccc(Br)c1 [Compound 186, (3-bromophenyl)(5-(5-(difluoromethyl)-1,3,4-oxadiazol-2-yl)-2,4-dimethyl-1H-pyrrol-3-yl)methanone] | 41.7 nM | 289 nM | 64.1 nM | – | –
Cc1[nH]c(-c2nnc(C3(O)CC3)o2)c(C)c1C(=O)c1cccc(Br)c1 [Compound 188, (3-bromophenyl)(5-(5-(1-hydroxycyclopropyl)-1,3,4-oxadiazol-2-yl)-2,4-dimethyl-1H-pyrrol-3-yl)methanone] | 35.1 nM | 37.8 nM | 40.4 nM | – | –
Cc1[nH]c(-c2nnc(C3(C)CC3)o2)c(C)c1C(=O)c1cccc(Br)c1 [Compound 189, (3-bromophenyl)(2,4-dimethyl-5-(5-(1-methylcyclopropyl)-1,3,4-oxadiazol-2-yl)-1H-pyrrol-3-yl)methanone] | 135 nM | 164 nM | 199 nM | – | –
Cc1[nH]c(-c2nnc(C3CC3C)o2)c(C)c1C(=O)c1cccc(Br)c1 (stereo not drawn) [Compound 190, (3-bromophenyl) (2,4-dimethyl-5-(5-(2-methylcyclopropyl)-1,3,4-oxadiazol-2-yl)-1H-pyrrol-3-yl)methanone] | 192 nM | 266 nM | 219 nM | – | –
CCc1nnc(-c2[nH]c(C)c(C(=O)c3cccc([N+](=O)[O-])c3)c2C)o1 [Compound 195, (5-(5-ethyl-1,3,4-oxadiazol-2-yl)-2,4-dimethyl-1H-pyrrol-3-yl)(3-nitrophenyl)methanone] | 8.5 nM | 12.2 nM | 9.9 nM | – | –
Cc1[nH]c(-c2nnc(C3CC3)o2)c(C)c1C(=O)c1cccc([N+](=O)[O-])c1 [Compound 196, (5-(5-cyclopropyl-1,3,4-oxadiazol-2-yl)-2,4-dimethyl-1H-pyrrol-3-yl)(3-nitrophenyl)methanone] | 6.2 nM | 9.9 nM | 5.5 nM | – | –
CCc1nnc(-c2[nH]c(C)c(C(=O)c3ccc(OC)c(Br)c3)c2C)o1 [Compound 197, (3-bromo-4-methoxyphenyl)(5-(5-ethyl-1,3,4-oxadiazol-2-yl)-2,4-dimethyl-1H-pyrrol-3-yl)methanone] | 0.9 nM | 3.9 nM | 1.4 nM | – | –

More lines, now with the values ahead:

IC50 [1] | IC50 ([2]; Homo sapiens, A549, 96 h) | IC50 ([3]; Homo sapiens, HCT-116, 96 h) | IC50 [3] | IC50 [2] | Compound
179 nM | 248 nM | 167 nM | – | – | CC(=O)OCCn1nnc(-c2[nH]c(C#N)c(C(=O)c3cccc(Br)c3)c2C)n1 [Compound 132, 2-(5-(4-(3-bromobenzoyl)-5-cyano-3-methyl-1H-pyrrol-2-yl)-2H-tetrazol-2-yl)ethyl acetate]
192 nM | 238 nM | 158 nM | – | – | Cc1c(-c2nnn(CCO)n2)[nH]c(C#N)c1C(=O)c1cccc(Br)c1 [Compound 133, 3-(3-bromobenzoyl)-5-(2-(2-hydroxyethyl)-2H-tetrazol-5-yl)-4-methyl-1H-pyrrole-2-carbonitrile]
156 nM | 278 nM | 186 nM | – | – | COC(=O)c1[nH]c(-c2nnn(CCO)n2)c(C)c1C(=O)c1cccc(Br)c1 [Compound 137, methyl 3-(3-bromobenzoyl)-5-(2-(2-hydroxyethyl)-2H-tetrazol-5-yl)-4-methyl-1H-pyrrole-2-carboxylate]
8.3 nM | 10.8 nM | 7.8 nM | – | – | Cc1[nH]c(-c2nnn(CCOC(=O)CN)n2)c(C)c1C(=O)c1cccc(Br)c1 [Compound 152, 2-(5-(4-(3-bromobenzoyl)-3,5-dimethyl-1H-pyrrol-2-yl)-2H-tetrazol-2-yl)ethyl 2-aminoacetate]
73.8 nM | 305 nM | 67.5 nM | – | – | Cc1[nH]c(-c2nnn(CCO)n2)c(C)c1C(=O)c1cccc(CO)c1 [Compound 163, (5-(2-(2-hydroxyethyl)-2H-tetrazol-5-yl)-2,4-dimethyl-1H-pyrrol-3-yl)(3-(hydroxymethyl)phenyl)methanone]
126 nM | 359 nM | – | 40.2 nM | – | CCn1nnc(-c2[nH]c(C)c(C(=O)c3cccc(OCCN)c3)c2C)n1 [Compound 165, (3-(2-aminoethoxy)phenyl)(5-(2-ethyl-2H-tetrazol-5-yl)-2,4-dimethyl-1H-pyrrol-3-yl)methanone]
31.5 nM | – | 39.5 nM | – | 139 nM | CCn1nnc(-c2[nH]c(C)c(C(=O)c3ccc(OCCN)c(Br)c3)c2C)n1 [Compound 167, (4-(2-aminoethoxy)-3-bromophenyl) (5-(2-ethyl-2H-tetrazol-5-yl)-2,4-dimethyl-1H-pyrrol-3-yl)methanone]
670 nM | 886 nM | 506 nM | – | – | Cc1[nH]c(-c2nnn(CCO)n2)c(C)c1C(=O)c1ccc(OCCN)c(Br)c1 [Compound 168, (4-(2-aminoethoxy)-3-bromophenyl)(5-(2-(2-hydroxyethyl)-2H-tetrazol-5-yl)-2,4-dimethyl-1H-pyrrol-3-yl)methanone]
35.7 nM | 47.4 nM | 37.7 nM | – | – | CC(=O)OCCn1nnc(-c2[nH]c(CCl)c(C(=O)c3cccc(Br)c3)c2C)n1 [Compound 171, 2-(5-(4-(3-bromobenzoyl)-5-(chloromethyl)-3-methyl-1H-pyrrol-2-yl)-2H-tetrazol-2-yl)ethyl acetate]
1.8 nM | 9.1 nM | 2.9 nM | – | – | Cc1nnc(-c2[nH]c(C)c(C(=O)c3cccc(Br)c3)c2C)o1 [Compound 185, (3-bromophenyl) (2,4-dimethyl-5-(5-methyl-1,3,4-oxadiazol-2-yl)-1H-pyrrol-3-yl)methanone]
